Test systems include SN12C; SF-268; NCI-H226; NCI-H460; COLO 205; SK-MEL-5; RXF 393; CCRF-CEM; HCT-116; OVCAR-3; SK-MEL-28; MOLT-4; MDA-N; UACC-257; HOP-62; SF-539; NCI-H23; RPMI-8226; OVCAR-5; OVCAR-8.
What all share (assay): growth of human tumour cells (NCI), 48 h

The values below come from ChEMBL document CHEMBL1201862, “PubChem BioAssay data set” (2004).

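The compound was tested at five concentrations on cells cultured in 96-well plates, with a 48-hour exposure period. The concentration for 50% growth inhibition is given as GI50.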 Activity calls are given as the source filed them. Cut-off read from the data, not from the text of the source: active = GI50 up to about 1.1 µM and inactive = higher. Non-standard residues stand in square brackets, D forms with d. Residues, ends and D or L forms follow the SMILES beside them. *: point of attachment. Phe(4-NO2) = N[CH](Cc1ccc([N+](=O)[O-])cc1)C(=O)O; Boc = CC(C)(C)OC(=O)* Some results are limits rather than exact numbers.

For `O=C(CNC(=O)OCc1ccccc1)NCCCCC(NC(=O)OCc1ccccc1)C(=O)O` (stereo not given), the GI50 in the experiment on SN12C, in the experiment on SF-268, in the experiment on NCI-H226, in the experiment with NCI-H460, with COLO 205 and with SK-MEL-5 was > 100 µM (inactive) throughout. For the same molecule, the GI50 in the experiment with RXF 393, in the experiment on CCRF-CEM, with HCT-116, in the experiment with OVCAR-3, in the experiment on SK-MEL-28 and in the experiment with MOLT-4 was > 100 µM (inactive) in each case. In addition, the GI50 in the experiment on MDA-N, with UACC-257, in the experiment on HOP-62, in the experiment on SF-539, in the experiment on NCI-H23 and in the experiment on RPMI-8226 was > 100 µM (inactive) in each case. The GI50 in the experiment on OVCAR-5 and in the experiment on OVCAR-8 was > 100 µM (inactive) throughout.
For `NC(=O)CCSC(CC(=O)c1ccc(Cl)cc1)c1ccc(Cl)cc1` (stereo not given), the GI50 in the experiment with SN12C is 28.2 µM (inactive); in the experiment with SF-268, 27.8 µM (inactive); in the experiment on NCI-H226, 36 µM (inactive); with NCI-H460 it was 35.9 µM (inactive); in the experiment with COLO 205 it was 33 µM (inactive); in the experiment with SK-MEL-5, 17.2 µM (inactive). In addition, the GI50 is 17.9 µM (inactive) with RXF 393; 2.93 µM (inactive) in the experiment with CCRF-CEM; 14.7 µM (inactive) with HCT-116; 19.2 µM (inactive) in the experiment on OVCAR-3; 28.4 µM (inactive) in the experiment with SK-MEL-28; 10.4 µM (inactive) with MOLT-4. Besides, the GI50 was 16.7 µM (inactive) in the experiment with MDA-N; 27.7 µM (inactive) with UACC-257; 28.1 µM (inactive) with HOP-62; 19.7 µM (inactive) in the experiment with SF-539; 32.4 µM (inactive) in the experiment on NCI-H23; 2.21 µM (inactive) with RPMI-8226. The GI50 with OVCAR-5 is 32.7 µM (inactive); in the experiment on OVCAR-8, 16.3 µM (inactive).
As to `COc1cc2c(cc1OC)C1(c3ccccc3)CN(C2)Cc2cc(OC)c(OC)cc21`, the GI50 was > 100 µM (inactive) in the experiment on SN12C; 49.9 µM (inactive) in the experiment on SF-268; 26.7 µM (inactive) in the experiment with NCI-H226; 30.2 µM (inactive) in the experiment with NCI-H460; 17.1 µM (inactive) in the experiment with COLO 205; 18.6 µM (inactive) in the experiment with SK-MEL-5. For the same molecule, the GI50 was 22.8 µM (inactive) with RXF 393; 15.6 µM (inactive) in the experiment on CCRF-CEM; 24.9 µM (inactive) with HCT-116; 54.6 µM (inactive) with OVCAR-3; > 100 µM (inactive) in the experiment on SK-MEL-28; 25.5 µM (inactive) in the experiment on MOLT-4. Further, the GI50 in the experiment on MDA-N is > 100 µM (inactive); in the experiment with UACC-257 it was 40.2 µM (inactive); in the experiment on HOP-62, 40.6 µM (inactive); in the experiment with SF-539, 19.3 µM (inactive); in the experiment with NCI-H23 it was 24.5 µM (inactive); in the experiment with RPMI-8226 it was 26 µM (inactive). The GI50 in the experiment on OVCAR-5 is 35.6 µM (inactive); in the experiment with OVCAR-8 it was 40.6 µM (inactive).
Take `CC(=O)NNc1nc(C)c(C(=O)NNC(=O)C(=O)Nc2nc3ccc([N+](=O)[O-])cc3s2)s1`: the GI50 is 68.2 µM (inactive) in the experiment with SN12C; 49.1 µM (inactive) with SF-268; 80 µM (inactive) with NCI-H226; 49 µM (inactive) in the experiment on NCI-H460; > 81.1 µM (inactive) with COLO 205; 42.6 µM (inactive) in the experiment on SK-MEL-5. Moreover, the GI50 is > 59.8 µM (inactive) in the experiment on RXF 393; 22 µM (inactive) in the experiment on CCRF-CEM; > 62.5 µM (inactive) in the experiment with HCT-116; 15.3 µM (inactive) with OVCAR-3; 65.2 µM (inactive) in the experiment with SK-MEL-28; 28.8 µM (inactive) with MOLT-4. In addition, the GI50 was 45.9 µM (inactive) in the experiment on MDA-N; 77.8 µM (inactive) in the experiment with UACC-257; > 82.6 µM (inactive) in the experiment on HOP-62; 44.7 µM (inactive) in the experiment on SF-539; 44.1 µM (inactive) in the experiment with NCI-H23; 30.5 µM (inactive) with RPMI-8226. The GI50 in the experiment on OVCAR-5 was 82.8 µM (inactive); with OVCAR-8, 52.7 µM (inactive).
For `Nc1c(C(=O)Nc2ccc([As](=O)(O)O)cc2)cnc2nnnn12`, the GI50 with SN12C, in the experiment on SF-268, with NCI-H226, in the experiment with NCI-H460, in the experiment on COLO 205 and with SK-MEL-5 was > 100 µM (inactive) each time. Further, the GI50 in the experiment on RXF 393, in the experiment on CCRF-CEM, with HCT-116, with OVCAR-3, with SK-MEL-28 and in the experiment with MOLT-4 was > 100 µM (inactive) throughout. Further, the GI50 with MDA-N, with UACC-257, in the experiment with HOP-62, with SF-539, with NCI-H23 and in the experiment with RPMI-8226 was > 100 µM (inactive) in each case. The GI50 in the experiment on OVCAR-5 and in the experiment with OVCAR-8 was > 100 µM (inactive) throughout.
With `O=c1[nH]nc(Cc2ccccc2)n1/N=C/c1cccnc1`, the GI50 with SN12C, with SF-268, in the experiment with NCI-H226, in the experiment with NCI-H460, in the experiment on COLO 205 and with SK-MEL-5 was > 100 µM (inactive) throughout. The GI50 in the experiment with RXF 393, in the experiment with CCRF-CEM, in the experiment with HCT-116, with OVCAR-3, in the experiment on SK-MEL-28 and with MOLT-4 was > 100 µM (inactive) in each case. Further, the GI50 in the experiment with MDA-N, in the experiment on UACC-257, with HOP-62, in the experiment on SF-539, in the experiment on NCI-H23 and in the experiment on RPMI-8226 was > 100 µM (inactive) throughout. In addition, the GI50 in the experiment on OVCAR-5 and in the experiment on OVCAR-8 was > 100 µM (inactive) throughout.
`O=C1OI(C#Cc2ccccc2)c2ccccc21`: the GI50 was 4.16 µM (inactive) in the experiment with SN12C; 2.84 µM (inactive) with SF-268; 5.26 µM (inactive) in the experiment with NCI-H226; 3.18 µM (inactive) with NCI-H460; 3.37 µM (inactive) with COLO 205; 2.19 µM (inactive) with SK-MEL-5. In addition, the GI50 in the experiment with RXF 393 was 5.43 µM (inactive); in the experiment with CCRF-CEM, 0.355 µM (active); with HCT-116, 2.24 µM (inactive); with OVCAR-3 it was 2.64 µM (inactive); with SK-MEL-28 it was 5.48 µM (inactive); in the experiment with MOLT-4, 1.63 µM (inactive). The GI50 is 4.16 µM (inactive) in the experiment on MDA-N; 5.2 µM (inactive) with UACC-257; 6.41 µM (inactive) with HOP-62; 2.16 µM (inactive) in the experiment with SF-539; 2.38 µM (inactive) with NCI-H23; 1.57 µM (inactive) in the experiment on RPMI-8226. The GI50 with OVCAR-5 is 5.82 µM (inactive); with OVCAR-8 it was 4.39 µM (inactive).
In the case of `C=C1C(=O)OC2CC(C)C3C=CC(=O)C3CC12` (stereo not given), the GI50 was 2.02 µM (inactive) with SN12C; 2.55 µM (inactive) in the experiment with SF-268; 2.64 µM (inactive) in the experiment with NCI-H226; 2.96 µM (inactive) in the experiment on NCI-H460; 1.52 µM (inactive) with COLO 205; 2.14 µM (inactive) in the experiment on SK-MEL-5. In addition, the GI50 in the experiment with RXF 393 is 1.53 µM (inactive); with CCRF-CEM, 0.428 µM (active); with HCT-116, 1.26 µM (inactive); in the experiment on OVCAR-3, 5.13 µM (inactive); with SK-MEL-28 it was 1.68 µM (inactive); in the experiment with MOLT-4 it was 1.5 µM (inactive). Further, the GI50 is 2.07 µM (inactive) in the experiment with MDA-N; 2.02 µM (inactive) in the experiment on UACC-257; 15.9 µM (inactive) in the experiment with HOP-62; 2.08 µM (inactive) with SF-539; 1.83 µM (inactive) in the experiment with NCI-H23; 1.71 µM (inactive) in the experiment with RPMI-8226. For the same molecule, the GI50 was 3.29 µM (inactive) in the experiment on OVCAR-5 and 2.94 µM (inactive) in the experiment with OVCAR-8.
On to `CCCCCCc1ccc(C(=O)NO)cc1`, for which the GI50 in the experiment with SN12C is 21.9 µM (inactive); with SF-268, 25.3 µM (inactive); in the experiment with NCI-H226, 24.4 µM (inactive); with NCI-H460, 25 µM (inactive); with COLO 205, 41.5 µM (inactive); in the experiment with SK-MEL-5, 47.1 µM (inactive). For the same molecule, the GI50 in the experiment on RXF 393 is 41.2 µM (inactive); in the experiment with CCRF-CEM it was 6.92 µM (inactive); in the experiment with HCT-116, 29.6 µM (inactive); in the experiment with OVCAR-3 it was 30.3 µM (inactive); with SK-MEL-28, 56.5 µM (inactive); in the experiment with MOLT-4, 11.7 µM (inactive). The GI50 in the experiment with MDA-N was 45.6 µM (inactive); with UACC-257 it was 44.7 µM (inactive); with HOP-62, 34.2 µM (inactive); in the experiment with SF-539, 49.8 µM (inactive); with NCI-H23, 28.3 µM (inactive); with RPMI-8226, 12.6 µM (inactive). Besides, the GI50 in the experiment with OVCAR-5 is 75 µM (inactive); in the experiment on OVCAR-8 it was 13.1 µM (inactive).
In the case of `COC(=O)CCC(NC(=O)OC(C)(C)C)C(=O)NC(Cc1ccc([N+](=O)[O-])cc1)C(=O)NC(CCC(=O)OC)C(=O)OC` (stereo not given) (Boc-Glu(OMe)-[Phe(4-NO2)]-Glu(OMe)-OMe; configuration not given here), the GI50 in the experiment with SN12C is 51.9 µM (inactive); with SF-268, > 100 µM (inactive); with NCI-H226, 74.8 µM (inactive); with NCI-H460, 60.3 µM (inactive); with COLO 205, > 100 µM (inactive); in the experiment with SK-MEL-5, > 100 µM (inactive). For the same molecule, the GI50 in the experiment on RXF 393 was > 100 µM (inactive); in the experiment with CCRF-CEM, 12.3 µM (inactive); in the experiment with HCT-116, > 100 µM (inactive); in the experiment on OVCAR-3 it was > 100 µM (inactive); with SK-MEL-28 it was > 100 µM (inactive); in the experiment on MOLT-4, 24.9 µM (inactive). In addition, the GI50 in the experiment with MDA-N is > 100 µM (inactive); with UACC-257, 11.3 µM (inactive); with HOP-62 it was > 100 µM (inactive); in the experiment with SF-539, 43.5 µM (inactive); with NCI-H23, > 100 µM (inactive); in the experiment with RPMI-8226, 27 µM (inactive). Besides, the GI50 in the experiment with OVCAR-5 and in the experiment with OVCAR-8 was > 100 µM (inactive) each time.
